Measured values taken from PubChem BioAssay (NCI).
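The compound was tested at five concentrations on cells cultured in 96-well plates, with a 48-hour exposure period. GI50 marks 50% less growth. TGI marks complete inhibition of growth.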

Tests used:
Assay in all cases: growth of human tumour cells (NCI), 48 h
MCF7 breast = tested on: MCF7 breast
LOX IMVI melanoma = tested on: LOX IMVI melanoma
786-0 renal = tested on: 786-0 renal
ACHN renal = tested on: ACHN renal
OVCAR-4 ovarian = tested on: OVCAR-4 ovarian
HOP-62 NSCLC = tested on: HOP-62 NSCLC
A498 renal = tested on: A498 renal
K-562 leukemia = tested on: K-562 leukemia
PC-3 prostate = tested on: PC-3 prostate
HCT-116 colon = tested on: HCT-116 colon
TK-10 renal = tested on: TK-10 renal
SK-OV-3 ovarian = tested on: SK-OV-3 ovarian
UO-31 renal = tested on: UO-31 renal
HT29 colon = tested on: HT29 colon
OVCAR-5 ovarian = tested on: OVCAR-5 ovarian
KM12 colon = tested on: KM12 colon
MDA-MB-231 breast = tested on: MDA-MB-231 breast
SNB-75 CNS = tested on: SNB-75 CNS
U251 CNS = tested on: U251 CNS
BT-549 breast = tested on: BT-549 breast
NCI-H522 lung = tested on: NCI-H522 lung
SN12C renal = tested on: SN12C renal
CAKI-1 renal = tested on: CAKI-1 renal
DU-145 prostate = tested on: DU-145 prostate
RXF 393 renal = tested on: RXF 393 renal
SF-295 CNS = tested on: SF-295 CNS
MALME-3M melanoma = tested on: MALME-3M melanoma

Work on `Nc1ccccc1C#Cc1ccccc1C#Cc1ccccc1N` yielded a GI50 (MCF7 breast) of 12.4 µM, a TGI (MCF7 breast) of over 100 µM and a GI50 (LOX IMVI melanoma) of 7.31 µM. For the same molecule, the TGI (LOX IMVI melanoma) was 20.9 µM, the GI50 (786-0 renal) was 11.9 µM and the TGI (786-0 renal) was 31.2 µM. The GI50 (ACHN renal) was 14 µM, the TGI (ACHN renal) was 29.7 µM and the GI50 (OVCAR-4 ovarian) was 23.3 µM. For the same molecule, the TGI (OVCAR-4 ovarian) was 80.9 µM, the GI50 (HOP-62 NSCLC) was 11 µM and the TGI (HOP-62 NSCLC) was 26.7 µM. The GI50 (A498 renal) was 6 µM, the TGI (A498 renal) was 19.8 µM and the GI50 (K-562 leukemia) was 2.01 µM. The TGI (K-562 leukemia) was 12.8 µM, the GI50 (PC-3 prostate) was 5.31 µM and the TGI (PC-3 prostate) was 23.3 µM. It also gave a GI50 (HCT-116 colon) of 6.32 µM, a TGI (HCT-116 colon) of 21.5 µM and a GI50 (TK-10 renal) of 4.17 µM. For the same molecule, the TGI (TK-10 renal) was 20 µM, the GI50 (SK-OV-3 ovarian) was 15.1 µM and the TGI (SK-OV-3 ovarian) was 35.5 µM. For the same molecule, the GI50 (UO-31 renal) was 6.34 µM, the TGI (UO-31 renal) was 22.5 µM and the GI50 (HT29 colon) was 5.98 µM. It also gave a TGI (HT29 colon) of over 100 µM, a GI50 (OVCAR-5 ovarian) of 27.6 µM and a TGI (OVCAR-5 ovarian) of 67.4 µM. The GI50 (KM12 colon) was 2.97 µM, the TGI (KM12 colon) was 14.7 µM and the GI50 (MDA-MB-231 breast) was 9.04 µM. It also gave a TGI (MDA-MB-231 breast) of 24.6 µM, a GI50 (SNB-75 CNS) of 23.7 µM and a TGI (SNB-75 CNS) of 70.3 µM. It also gave a GI50 (U251 CNS) of 4.5 µM, a TGI (U251 CNS) of 17.3 µM and a GI50 (BT-549 breast) of 5.41 µM. For the same molecule, the TGI (BT-549 breast) was 24.7 µM, the GI50 (NCI-H522 lung) was 3.17 µM and the TGI (NCI-H522 lung) was 11.5 µM. It also gave a GI50 (SN12C renal) of 11.4 µM, a TGI (SN12C renal) of 24.5 µM and a GI50 (CAKI-1 renal) of 4.41 µM. The TGI (CAKI-1 renal) was 18.5 µM, the GI50 (DU-145 prostate) was 11.3 µM and the TGI (DU-145 prostate) was 28.6 µM. The GI50 (RXF 393 renal) was 9.74 µM, the TGI (RXF 393 renal) was 32 µM and the GI50 (SF-295 CNS) was 3.13 µM. For the same molecule, the TGI (SF-295 CNS) was 10.5 µM, the GI50 (MALME-3M melanoma) was 10.3 µM and the TGI (MALME-3M melanoma) was 24.1 µM.
